From US4120864A, “1,2,4-4H-triazole derivatives” (Rohm and Haas Company, priority 1972, dated 1978) come the findings set out here.

Type in all cases: in vivo
Experiment [1] relates to wheat leaf rust, Puccinia recondita. The experiment in a line: Foliar systemic activity on leaf rust. From the text:
Another type of systemic test was run in which pots of approximately 5 inch high wheat plants were sprayed with varying concentrations of the test compound. Thirty-six hours later they were sprayed six minutes in a rain machine which amounted to about one inch of normal rainfall. The plants were then placed in a greenhouse for 7 days and then inoculated with a spore suspension of wheat leaf rust, Puccinia recondita. About 7 days later lesion counts were made on ten leaves representing the sprayed leaves and new growth from each replicate and compared with similar pots of wheat plants which were untreated with a chemical and the percent disease control determined. Disease control on the new growth is a measure of systemic activity. The commercial product known by the trademarked name Plantvax, which is 2,3-dihydro-5-carboxanilido-6-methyl-1,4-oxathiin-4,4-dioxide, was used as a standard.

Experiment [2] shares this test system.
Experiment [3] has the same test system. The experiment in a line: whole plant or invertebrate. To be noted: foliar; for pest or weed control at 280.212 g/ha: read-out: % Control (with 1" of rain), foliar, 0.25 lb., 1" of rain; for pest or weed control at 1120.85 g/ha: read-out: % Control (with 1" of rain), foliar, 1 lb., 1" of rain.
The test system is the same in experiment [4]. The experiment in a line: whole plant or invertebrate. To be noted: foliar; for pest or weed control at 280.212 g/ha: read-out: % Control (without rain), foliar, 0.25 lb.; for pest or weed control at 1120.85 g/ha: read-out: % Control (without rain), foliar, 1 lb.

Structures can show the parent of a compound that is named as a salt. Where two headings read alike, the source gives them in different places.

Consider `Sc1nncn1Cc1ccccc1` [Example 84, 3-mercapto-4-benzyl-1,2,4-triazole], for which the “% Rust Control, New growth” value in experiment [1] (1/2 lb./100 gal.) is 54%; in experiment [1] (1/6 lb./100 gal.), 34%; in experiment [1] (1/12 lb./100 gal.), 36%. In addition, the “% Rust Control, Sprayed Leaf” value in experiment [1] (1/2 lb./100 gal.) was 78%; in experiment [1] (1/6 lb./100 gal.), 63%; in experiment [1] (1/12 lb./100 gal.), 54%. Moreover, the “% Systemic Wheat Leaf Rust Control” value in experiment [2] (2.5 ppm in soil) stood at 0%; in experiment [2] (5 ppm in soil), 34%; in experiment [2] (10 ppm in soil), 64%. Moreover, the pest or weed control at 280.212 g/ha in experiment [3] and in experiment [4] was 100% throughout. Besides, the pest or weed control at 1120.85 g/ha in experiment [3] and in experiment [4] was 100% throughout.
On to `CCCCn1cnnc1SCC(N)=O` [Example 111, 3-carbamoylmethylmercapto-4-n butyl-1,2,4-triazole], for which the “% Rust Control, New growth” value in experiment [1] (1/2 lb./100 gal.) was 88%; in experiment [1] (1/6 lb./100 gal.), 59%; in experiment [1] (1/12 lb./100 gal.), 38%. In addition, the figures for the “% Rust Control, Sprayed Leaf” value in experiment [1] (1/2 lb./100 gal.), in experiment [1] (1/6 lb./100 gal.) and in experiment [1] (1/12 lb./100 gal.) were 88%, 51% and 49%, respectively. Also, the “% Systemic Wheat Leaf Rust Control” value in experiment [2] (2.5 ppm in soil) was 76%; in experiment [2] (5 ppm in soil), 91%; in experiment [2] (10 ppm in soil), 92%. The figures for the pest or weed control at 280.212 g/ha in experiment [3] and in experiment [4] were 93% and 100%, respectively. In addition, the pest or weed control at 1120.85 g/ha in experiment [3] and in experiment [4] was 100% throughout.
Turning to `CCCCCCn1cnnc1S` [Example 79, 3-mercapto-4-n-hexyl-1,2,4-triazole], the “% Rust Control, New growth” value in experiment [1] (1/2 lb./100 gal.) amounted to 65%; in experiment [1] (1/6 lb./100 gal.) it was 48%; in experiment [1] (1/12 lb./100 gal.), 38%. Moreover, the “% Rust Control, Sprayed Leaf” value in experiment [1] (1/2 lb./100 gal.) is reported as 96%; in experiment [1] (1/6 lb./100 gal.), 88%; in experiment [1] (1/12 lb./100 gal.), 85%. In addition, the results for the “% Systemic Wheat Leaf Rust Control” value in experiment [2] (2.5 ppm in soil), in experiment [2] (5 ppm in soil) and in experiment [2] (10 ppm in soil) were 0%, 0% and 54%, respectively. Moreover, the pest or weed control at 280.212 g/ha in experiment [3] and in experiment [4] was 100% throughout. In addition, the pest or weed control at 1120.85 g/ha in experiment [3] and in experiment [4] was 100% in each case.
As for `CCCCn1c(SC(=O)NC)nnc1C(=O)O` [Example 100, triethanolamine salt of 3 methyl-carbamoylmercapto-4-n-butyl-5-carboxy-1,2,4-triazole], the “% Rust Control, New growth” value in experiment [1] (1/2 lb./100 gal.) was 79%; in experiment [1] (1/6 lb./100 gal.) it was 63%; in experiment [1] (1/12 lb./100 gal.) it was 54%. Besides, the “% Rust Control, Sprayed Leaf” value in experiment [1] (1/2 lb./100 gal.) amounted to 79%; in experiment [1] (1/6 lb./100 gal.) it was 79%; in experiment [1] (1/12 lb./100 gal.), 57%. The “% Systemic Wheat Leaf Rust Control” value in experiment [2] (2.5 ppm in soil) stood at 89%; in experiment [2] (5 ppm in soil), 99%; in experiment [2] (10 ppm in soil), 99%. Further, the “% Control (with 1" of rain)” value in experiment [3] (0.25 lb.) and in experiment [3] (1 lb.) was 100% throughout. The “% Control (without rain)” value in experiment [4] (0.25 lb.) and in experiment [4] (1 lb.) was 100% throughout.
On to `CCCCn1cnnc1` [Example 3, 4-n-butyl-1,2,4-triazole], for which the “% Rust Control, New growth” value in experiment [1] (1/2 lb./100 gal.) is on record as 100%; in experiment [1] (1/6 lb./100 gal.), 98%; in experiment [1] (1/12 lb./100 gal.), 85%. The “% Rust Control, Sprayed Leaf” value in experiment [1] (1/2 lb./100 gal.) is 99%; in experiment [1] (1/6 lb./100 gal.), 99%; in experiment [1] (1/12 lb./100 gal.) it was 97%. The “% Systemic Wheat Leaf Rust Control” value in experiment [2] (2.5 ppm in soil), in experiment [2] (5 ppm in soil) and in experiment [2] (10 ppm in soil) was 100% each time. For the same compound, the pest or weed control at 280.212 g/ha in experiment [3] and in experiment [4] was 100% each time. Moreover, the pest or weed control at 1120.85 g/ha in experiment [3] and in experiment [4] was 100% throughout.
As to `CCCCn1c(S)nnc1C(=O)OCC` [Example 97], the results for the “% Rust Control, New growth” value in experiment [1] (1/2 lb./100 gal.), in experiment [1] (1/6 lb./100 gal.) and in experiment [1] (1/12 lb./100 gal.) were 54%, 75% and 67%, respectively. Further, the “% Rust Control, Sprayed Leaf” value stood at 86% in experiment [1] (1/2 lb./100 gal.), 73% in experiment [1] (1/6 lb./100 gal.) and 81% in experiment [1] (1/12 lb./100 gal.). Further, the “% Systemic Wheat Leaf Rust Control” value in experiment [2] (2.5 ppm in soil) was found to be 93%; in experiment [2] (5 ppm in soil), 95%; in experiment [2] (10 ppm in soil), 100%. In addition, the pest or weed control at 280.212 g/ha in experiment [3] and in experiment [4] was 100% each time. Moreover, the pest or weed control at 1120.85 g/ha in experiment [3] and in experiment [4] was 100% each time.
`CCCCCn1cnnc1S` [Example 78, 3-mercapto-4-n-pentyl-1,2,4-triazole]: the results for the “% Rust Control, New growth” value in experiment [1] (1/2 lb./100 gal.), in experiment [1] (1/6 lb./100 gal.) and in experiment [1] (1/12 lb./100 gal.) were 92%, 79% and 57%, respectively. Besides, the “% Rust Control, Sprayed Leaf” value in experiment [1] (1/2 lb./100 gal.) stood at 98%; in experiment [1] (1/6 lb./100 gal.), 96%; in experiment [1] (1/12 lb./100 gal.) it was 91%. Further, the “% Systemic Wheat Leaf Rust Control” value in experiment [2] (2.5 ppm in soil), in experiment [2] (5 ppm in soil) and in experiment [2] (10 ppm in soil) was 97% throughout. The pest or weed control at 280.212 g/ha in experiment [3] turned out to be 100%; in experiment [4], 97%. For the same compound, the pest or weed control at 1120.85 g/ha in experiment [3] and in experiment [4] was 100% each time.
On to `CCCCn1cnnc1SCC(=O)c1ccc(OC)cc1` [Example 125, 3-(p-methoxyphenacylmercapto)-4-n-butyl-1,2,4-triazole], for which the results for the “% Systemic Wheat Leaf Rust Control” value in experiment [2] (2.5 ppm in soil), in experiment [2] (5 ppm in soil) and in experiment [2] (10 ppm in soil) were 55%, 68% and 44%, respectively. Moreover, the pest or weed control at 280.212 g/ha in experiment [3] was determined as 20%; in experiment [4], 50%. Further, the pest or weed control at 1120.85 g/ha was 30% in experiment [3] and 60% in experiment [4].
Turning to `CCCCn1cnnc1Sc1ccc([N+](=O)[O-])cc1[N+](=O)[O-]` [Example 127, 3-(2,4-dinitrophenylmercapto)-4-n-butyl-1,2,4-triazole], the “% Rust Control, New growth” value is 81% in experiment [1] (1/2 lb./100 gal.), 69% in experiment [1] (1/6 lb./100 gal.) and 57% in experiment [1] (1/12 lb./100 gal.). Besides, the figures for the “% Rust Control, Sprayed Leaf” value in experiment [1] (1/2 lb./100 gal.), in experiment [1] (1/6 lb./100 gal.) and in experiment [1] (1/12 lb./100 gal.) were 98%, 93% and 81%, respectively. For the same compound, the entries for the “% Systemic Wheat Leaf Rust Control” value in experiment [2] (2.5 ppm in soil), in experiment [2] (5 ppm in soil) and in experiment [2] (10 ppm in soil) were 67%, 94% and 100%, respectively. Also, the pest or weed control at 1120.85 g/ha in experiment [3] and in experiment [4] was 100% throughout. The pest or weed control at 280.212 g/ha in experiment [4] worked out at 100%.
As for `c1ccc(Cn2cnnc2)cc1` [Example 49, 4-benzyl-1,2,4-triazole], the “% Rust Control, New growth” value in experiment [1] (1/2 lb./100 gal.) was determined as 87%; in experiment [1] (1/6 lb./100 gal.), 54%; in experiment [1] (1/12 lb./100 gal.), 46%. The “% Rust Control, Sprayed Leaf” value in experiment [1] (1/2 lb./100 gal.) was 99%; in experiment [1] (1/6 lb./100 gal.), 76%; in experiment [1] (1/12 lb./100 gal.), 42%. The “% Systemic Wheat Leaf Rust Control” value stood at 96% in experiment [2] (2.5 ppm in soil), 98% in experiment [2] (5 ppm in soil) and 99% in experiment [2] (10 ppm in soil). Moreover, the pest or weed control at 280.212 g/ha in experiment [3] turned out to be 100%; in experiment [4] it was 95%. In addition, the pest or weed control at 1120.85 g/ha in experiment [3] and in experiment [4] was 100% each time.
Turning to `COCCCn1cnnc1` [Example 46, 4-(3-methoxypropyl)-1,2,4-triazole], the “% Systemic Wheat Leaf Rust Control” value came to 96% in experiment [2] (2.5 ppm in soil) and 99% in experiment [2] (5 ppm in soil). In addition, the pest or weed control at 280.212 g/ha in experiment [3] came out at 99%; in experiment [4], 100%. In addition, the pest or weed control at 1120.85 g/ha in experiment [3] and in experiment [4] was 100% each time.
Regarding `CCCn1cnnc1` [Example 1, 4-n-propyl-1,2,4-triazole], the “% Systemic Wheat Leaf Rust Control” value in experiment [2] (2.5 ppm in soil) amounted to 99%; in experiment [2] (5 ppm in soil), 100%. Besides, the pest or weed control at 280.212 g/ha stood at 87% in experiment [3] and 100% in experiment [4]. In addition, the pest or weed control at 1120.85 g/ha in experiment [3] and in experiment [4] was 100% throughout.
For `CCCn1cnnc1S` [Example 75, 3-mercapto-4-n-propyl-1,2,4-triazole], the results for the “% Systemic Wheat Leaf Rust Control” value in experiment [2] (2.5 ppm in soil), in experiment [2] (5 ppm in soil) and in experiment [2] (10 ppm in soil) were 40%, 82% and 84%, respectively. In addition, the pest or weed control at 280.212 g/ha in experiment [3] was found to be 100%; in experiment [4], 91%. In addition, the pest or weed control at 1120.85 g/ha in experiment [3] was determined as 99%; in experiment [4] it was 100%.
